Reference: patent US20260242478A1, “ANTIBODIES FOR TARGETING PSMA AND CD28 AND USES THEREOF” (Janux Therapeutics, Inc., priority 2023, published 2026)
Blank lines part the entries; values can stand above or below the substance they belong to.

What was measured:
[1] = biological target: PSMA Fab (SEQ ID NOs: 19, 20); assay: PSMA Fab binding to peptides, ELISA; conditions: PSMA Fab binding to biotinylated peptide, ELISA
Protocol: Peptides of Table 9 were evaluated for their ability to bind to PSMA Fab in a standard enzyme linked immunosorbent assay (ELISA) format. […] PSMA Fab diluted in buffer was then added to the peptide captured plates. Bound antibody was detected using a standard horse radish peroxidase conjugate secondary antibody.

[2] = biological target: anti-CD28 Fab (SEQ ID NOs: 696, 697); assay: anti-CD28 Fab binding to peptides, ELISA; conditions: anti-CD28 Fab
[3] = system: PSMA Fab (SEQ ID NOs: 19, 20) binding to the PSMA antigen; assay: Inhibition of PSMA Fab binding to PSMA by peptides, competition ELISA (incl. alanine scanning); design: key to Mutation Status: tolerant (T); somewhat tolerant (ST); intolerant (IT)
Protocol: PSMA Fab fixed at 0.3 nanomolar (nM) concentration was pre-incubated with 0-100 micromolar (μM) titrated peptides. After a short pre-incubation period, the mixture of titrated peptide with fixed PSMA Fab were added to the PSMA antigen coated plates. After a short incubation on the plates, bound PSMA Fab was detected with a standard horse radish peroxidase conjugated secondary antibody.
The tables also designate each alanine mutation as tolerant (T), somewhat tolerant (ST), or intolerant (IT) based on changes in binding inhibition ability relative to the non-mutated peptide. Cys-5 and Cys-11 of peptide-179 and peptide-180 were not mutated.

[4] = biological target: anti-CD28 scFv (SEQ ID NO: 9); assay: Kinetic binding of anti-CD28 scFv to peptides, bio-layer interferometry (Octet RED96); conditions: Table 36; anti-CD28 scFv titrated 100-12.5 nM, 200 nM peptide loaded
Protocol: (§1) Briefly, streptavidin biosensors were loaded with biotinylated peptides and baselined in buffer. […] After a short association period, sensors were transferred into buffer and the dissociation of bound anti-CD28 scFv was measured. The timing and steps of the experiment are shown in the accompanying table. Association and dissociation signals were recorded in real time and analyzed using a 1:1 binding model within the instrument software. Analysis using a 1:1 binding model enabled the calculation of the on and off rate constants as well as affinity, KD.
as §1, with “KD. FIGS. 70A-70F illustrate kinetic binding of anti-CD28 scFv binding to peptides as measured by Octet. FIGS. 70G-70U illustrate kinetic binding of peptides to the anti-CD28 scFv as measured by Octet.” for “KD.”

[5] = Table 40, alanine scanning of Peptide-179, change in binding inhibition relative to non-mutated peptide
[6] = Table 39, PSMA Fab fixed at 0.3 nM, peptide 0-100 μM
[7] = Table 40, competition binding ELISA, alanine scanning sequences of Peptide-179
[8] = Table 41, alanine scanning of Peptide-180, change in binding inhibition relative to non-mutated peptide
[9] = Table 38, PSMA Fab fixed at 0.3 nM, peptide 0-100 μM
[10] = Table 37, PSMA Fab fixed at 0.3 nM, peptide 0-100 μM

Sequence of anti-CD28 scFv (SEQ ID NO: 9) (as listed by the source): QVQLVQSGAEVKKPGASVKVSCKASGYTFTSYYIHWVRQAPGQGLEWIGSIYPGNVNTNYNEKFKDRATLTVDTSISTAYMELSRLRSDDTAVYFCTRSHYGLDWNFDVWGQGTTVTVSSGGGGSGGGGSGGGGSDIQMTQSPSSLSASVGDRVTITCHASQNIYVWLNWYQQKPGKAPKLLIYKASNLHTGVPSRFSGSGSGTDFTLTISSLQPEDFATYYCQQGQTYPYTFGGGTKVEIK
Sequence of anti-CD28 Fab (SEQ ID NOs: 696, 697) (as listed by the source): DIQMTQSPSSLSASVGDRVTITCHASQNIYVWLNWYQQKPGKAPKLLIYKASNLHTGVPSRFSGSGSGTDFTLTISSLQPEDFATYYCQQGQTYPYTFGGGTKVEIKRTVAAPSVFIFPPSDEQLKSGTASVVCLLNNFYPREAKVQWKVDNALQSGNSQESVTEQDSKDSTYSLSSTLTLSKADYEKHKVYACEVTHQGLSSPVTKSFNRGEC
Sequence of anti-CD28 Fab (SEQ ID NOs: 696, 697) (as listed by the source): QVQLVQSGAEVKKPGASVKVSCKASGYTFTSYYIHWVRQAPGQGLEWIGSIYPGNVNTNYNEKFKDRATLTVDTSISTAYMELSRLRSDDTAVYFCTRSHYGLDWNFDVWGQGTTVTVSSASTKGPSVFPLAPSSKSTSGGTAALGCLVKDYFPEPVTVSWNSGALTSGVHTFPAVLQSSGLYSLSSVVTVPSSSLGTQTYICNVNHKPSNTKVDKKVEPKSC
Sequence of PSMA Fab (SEQ ID NOs: 19, 20) (as listed by the source): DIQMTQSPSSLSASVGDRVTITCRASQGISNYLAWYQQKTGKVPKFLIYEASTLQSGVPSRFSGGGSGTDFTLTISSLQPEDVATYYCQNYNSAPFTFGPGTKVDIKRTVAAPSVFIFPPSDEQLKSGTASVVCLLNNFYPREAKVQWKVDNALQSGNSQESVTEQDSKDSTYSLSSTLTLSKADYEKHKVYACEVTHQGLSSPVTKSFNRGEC
Sequence of PSMA Fab (SEQ ID NOs: 19, 20) (as listed by the source): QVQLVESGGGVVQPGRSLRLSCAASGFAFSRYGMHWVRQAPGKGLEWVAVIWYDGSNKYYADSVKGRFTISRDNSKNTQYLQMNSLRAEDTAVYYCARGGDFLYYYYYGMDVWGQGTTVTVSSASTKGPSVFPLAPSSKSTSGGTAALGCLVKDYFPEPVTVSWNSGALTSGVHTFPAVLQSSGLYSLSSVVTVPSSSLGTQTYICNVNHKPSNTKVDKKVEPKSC
Sequence of PSMA Fab (SEQ ID NOs: 19, 20) binding to the PSMA antigen (Q04609 whole entry partner): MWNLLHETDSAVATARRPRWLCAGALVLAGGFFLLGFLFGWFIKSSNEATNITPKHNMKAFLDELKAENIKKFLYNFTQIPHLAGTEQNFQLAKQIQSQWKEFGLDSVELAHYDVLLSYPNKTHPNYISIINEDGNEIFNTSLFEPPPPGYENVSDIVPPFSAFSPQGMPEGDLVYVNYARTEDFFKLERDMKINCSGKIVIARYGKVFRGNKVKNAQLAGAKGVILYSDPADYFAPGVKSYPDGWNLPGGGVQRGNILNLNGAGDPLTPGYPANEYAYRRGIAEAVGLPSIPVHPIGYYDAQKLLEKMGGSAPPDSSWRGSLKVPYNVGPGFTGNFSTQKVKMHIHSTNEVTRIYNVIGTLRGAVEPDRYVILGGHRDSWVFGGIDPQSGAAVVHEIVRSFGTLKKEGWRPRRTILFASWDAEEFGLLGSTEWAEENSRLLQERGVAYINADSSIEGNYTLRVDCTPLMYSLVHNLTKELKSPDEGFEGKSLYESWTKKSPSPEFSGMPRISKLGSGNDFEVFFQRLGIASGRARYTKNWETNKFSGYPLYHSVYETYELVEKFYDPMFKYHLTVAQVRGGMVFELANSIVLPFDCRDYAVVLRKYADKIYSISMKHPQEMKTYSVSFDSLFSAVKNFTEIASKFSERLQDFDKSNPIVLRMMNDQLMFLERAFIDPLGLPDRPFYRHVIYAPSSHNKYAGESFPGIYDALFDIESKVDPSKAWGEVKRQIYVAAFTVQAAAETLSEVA

EC50 ([1]; Table 37): > 1 µM
Substance: ACHSLVLKHHLQKC [Peptide-176]

EC50 ([2]; Table 25): 0.0106 µM
Substance: TCSAGAHYPWPICL [Peptide-150]

Substance: LAKWCTPRWMCAAE [Peptide-242]
Mutation Status [3, 5]: T

Substance: FWECYSSFCRFVEG [Peptide-196]
IC50 [3, 6]: > 100 µM

EC50 ([2]; Table 26): 0.0081 µM
Substance: YCEGHAPEYIWKCL [Peptide-123]

Substance: YCWVDADMWLIFRC [Peptide-199]
IC50 [3, 6]: > 100 µM

Substance: MCFVTGWGVPDDCN [Peptide-208]
IC50 [3, 6]: > 100 µM

Substance: MEYCSFHRFTCVLW [Peptide-193]
IC50 [3, 6]: > 100 µM

Substance: EPKWCVPRGLCNYD [Peptide-240]
IC50 ([3]; Table 43, SAR guided optimization phage library of peptide-179): > 100 µM

EC50 ([1]; Table 37): > 1 µM
Substance: DCFYAADIHWNYCN [Peptide-157]

Substance: FVPCIPSHWLCPIW [Peptide-191]
IC50 [3, 6]: > 100 µM

Substance: LMKWCTARWMCAAE [Peptide-246]
Mutation Status [3, 5]: IT | IC50 [3, 7]: > 100 µM

EC50 ([2]; Table 25): 0.0156 µM
Substance: TCSAGATWAWPLCF [Peptide-152]

EC50 ([1]; Table 37): > 1 µM
Substance: FGHCAGSPVFCAYW [Peptide-168]

EC50 ([2]; Table 25): 0.0131 µM
Substance: LCAAGASWPWPVCL [Peptide-138]

EC50 ([1]; Table 37): > 1 µM
Substance: FCGWMDGDVFWFCG [Peptide-171]

Substance: WCWVQDDRRHVVCG [Peptide-201]
IC50 [3, 6]: > 100 µM

EC50 ([2]; Table 26): 0.0078 µM
Substance: YCEGHAPEYIRKCL [Peptide-122]

Substance: LMKWCTPRAMCAAE [Peptide-248]
Mutation Status [3, 5]: IT | IC50 [3, 7]: > 100 µM

EC50 ([1]; Table 37): > 1 µM
Substance: PLCGTEEVWWECRL [Peptide-166]

Substance: AMKWCTPRWMCAAE [Peptide-241]
Mutation Status [3, 5]: T

EC50 ([2]; Table 26): 0.0594 µM
Substance: YCEGHSQEYLWKCL [Peptide-128]

EC50 ([1]; Table 37): > 1 µM
Substance: FCNWVDGDVWVVCK [Peptide-172]

Substance: LCEWWTSHVDAWCA [Peptide-213]
IC50 [3, 6]: > 100 µM

Substance: HCLWHESSGRVLCF [Peptide-192]
IC50 [3, 6]: > 100 µM

Substance: IAVLCAPNWMCAGF [Peptide-254]
Mutation Status [3, 8]: T

EC50 ([2]; Table 26): 0.0658 µM
Substance: YCEGHRPEYILKCL [Peptide-118]

Substance: LMKWCTPAWMCAAE [Peptide-247]
Mutation Status [3, 5]: T

EC50 ([1]; Table 38): > 3 µM
Substance: HCLGPALGPVDGDC [Peptide-189]
IC50 [3, 9]: > 100 µM

EC50 ([1]; Table 38): > 3 µM
Substance: IRCVGEGHDLVCIF [Peptide-184]
IC50 [3, 9]: > 100 µM

Substance: IAVLCQPNWMCAAF [Peptide-259]
Mutation Status [3, 8]: ST

Binding EC50 ([1]; Table 37): high background
Substance: ICQWIGATNAWVCY [Peptide-164]
IC50 [3, 10]: > 100 µM

Substance: MEYCSFHRFTCVLW [Peptide-183]
IC50 [3, 9]: > 100 µM

Substance: IAVLCQPAWMCAGF [Peptide-256]
Mutation Status [3, 8]: T

Substance: Peptide-2687 (LMAWCTPRWMCAAE)
Mutation Status [3, 5]: ST

EC50 ([2]; Table 25): 0.0053 µM
Substance: TCSAGASYPWPLCL [Peptide-139]

EC50 ([2]; Table 25): 0.0021 µM
Substance: TCSAGATWPWPICL [Peptide-137]

EC50 ([2]; Table 25): 0.0044 µM
Substance: TCSAGAAYPWPLCL [Peptide-145]

EC50 ([1]; Table 37): > 1 µM
Substance: NAHCWLWVPAHCRV [Peptide-167]
IC50 [3, 10]: > 100 µM

EC50 ([1]; Table 38): > 3 µM
Substance: ILCGLYEALVSECG [Peptide-187]
IC50 [3, 9]: > 100 µM

EC50 ([1]; Table 37): > 1 µM
Substance: NCWWHDFRAGHVVC [Peptide-161]

EC50 ([1]; Table 37): > 1 µM
Substance: PDCVYHSFWGYSCR [Peptide-178]

EC50 ([1]; Table 37): > 1 µM
Substance: MEYCSFHRFTCVLW [Peptide-174]

Substance: LMKWCTPRWACAAE [Peptide-249]
Mutation Status [3, 5]: IT | IC50 [3, 7]: > 100 µM

EC50 ([2]; Table 26): 0.0121 µM
Substance: YCEGHLPEYLGKCL [Peptide-125]

EC50 ([2]; Table 25): 0.0026 µM
Substance: TCAAGAAWPWPQCL [Peptide-140]

Substance: LMKACTPRWMCAAE [Peptide-244]
Mutation Status [3, 5]: ST

Substance: MDWCPRDLWDLCFA [Peptide-37]
Kd [4]: 0.0978 µM | kdis [4]: 0.00351 s⁻¹ | kon [4]: 35900 M⁻¹ s⁻¹

Substance: MDWCPVHLWSVCFA [Peptide-50]
Kd [4]: 0.048 µM | kdis [4]: 0.00443 s⁻¹ | kon [4]: 92300 M⁻¹ s⁻¹

EC50 ([1]; Table 37): > 1 µM
Substance: TCLRFADLAIIHCD [Peptide-160]

Substance: MDWCPLYLWNECFN [Peptide-36]
Kd [4]: 0.0687 µM | kdis [4]: 0.00252 s⁻¹ | kon [4]: 36700 M⁻¹ s⁻¹
